The results in this text go back to patent US8623921B2, “Bis(thio-hydrazide amide) formulation” (Synta Pharmaceuticals Corp., priority 2005, dated 2014).

Entries after “also recorded” stand apart in the source; their conditions may differ.

Data set [1] is described as follows: DSC analysis of glass transition temperatures (Tg, Tg′). It is filed as physicochemical. The following applies: compound itself. As to the method: Tg′ and Tg were evaluated using a PYRIS Diamond DSC. Samples for Tg′ determination were prepared by loading 50 μL of sample into a 500 μL aluminum pan, then sealing the pan using the sealing press. The thermal program used to identify Tg′ (without annealing) was: • 1. Ramp from 20° C. to −50° C. at 10° C./min • 2. Hold at −50° C. for 4 minutes • 3. Ramp from −50° C. to 20° C. at 10° C./min The thermal program used to identify Tg′ that included an annealing step was: • 1. Ramp from 20° C. to −45° C. at 10° C./min • 2. Hold at −45° C. for 10 minutes • 3. Ramp from −45° C. to −8° C. at 10° C./min • 4. Hold at −8° C. for 1 hour • 5. Ramp from −8° C. to −70° C. at 10° C./min • 6. Hold at −70° C. for 5 minutes • 7. Ramp from −70° C. to 20° C. at 10° C./min Tg′ was taken to be the midpoint of the transition.
Freeze-dried samples used in the determination of […] ramped the temperature from 25° C. to 150° C. at 10° C./min.
In general terms: DSC measures the heat that a sample takes up or gives off during a temperature scan.

Data set [2] can be described thus: Stability during freeze-drying by reverse-phase HPLC. It is filed as physicochemical. As to the method: Reverse phase HPLC was used to quantify the potency and purity of; disodium 2-(N′-methyl-N′-thiobenzoyl-hydrazinocarbonyl)-1-(methyl-thiobenzoyl-hydrazono)-ethanolate following freeze-drying. The analysis was performed as detailed in the analytical method.

Regarding `CN(/N=C(\O)C/C(O)=N/N(C)C(=S)c1ccccc1)C(=S)c1ccccc1` [Structural Formula, (II)], in data set [1], the “Tg (glass transition temperature)” value is −44.7 °C.

Turning to `CN(NC(=O)CC(=O)NN(C)C(=S)c1ccccc1)C(=S)c1ccccc1` [disodium 2-(N′-methyl-N′-thiobenzoyl-hydrazinocarbonyl)-1-(methyl-thiobenzoyl-hydrazono)-ethanolate], in data set [2] (RP-HPLC after freeze-drying, on average), the main peak purity was determined as 97%. In addition, the stability during freeze-drying result in data set [2] (reverse-phase HPLC, all freeze-drying cycles tested) is listed as “stable through all of the freeze-drying cycles tested, as no degradation products were detected; also recorded: did not adversely affect the stability”.
